In patent publication US20080039437A1, “New Pyridine Analogues III” (ASTRAZENECA AB, priority 2006, published 2008):

Target: T1, P2Y12 receptor (Homo sapiens, UniProt Q9H244)
T1 construct: expressed in transfected cells; host or cells: CHO cells (membranes)
Assay: Functional inhibition of 2-Me-S-ADP induced P2Y12 signalling (35S-GTPγS, cell membranes)
Type: biochemical
Settings: membranes from P2Y12 transfected CHO-cells, EC80 of agonist 2-methyl-thio-adenosine diphosphate, 30° C., 45 min
Method: Functional inhibition of the P2Y12 receptor can be measured by in vitro assays using cell membranes from P2Y12 transfected CHO-cells, the methodology is indicated below.
Functional inhibition of 2-Me-S-ADP induced P2Y12 signalling: 5 μg of membranes were diluted in 200 μl of 200 mM NaCl, 1 mM MgCl2, 50 mM HEPES (pH 7.4), 0.01% BSA, 30 μg/ml saponin and 10 μM GDP. To this was added an EC80 concentration of agonist (2-methyl-thio-adenosine diphosphate), the required concentration of test compound and 0.1 μCi ^35S-GTPγS. The reaction was allowed to proceed at 30° C. for 45 min. Samples were then transferred on to GF/B filters using a cell harvester and washed with wash buffer (50 mM Tris (pH 7.4), 5 mM MgCl2, 50 mM NaCl). Filters were then covered with scintillant and counted for the amount of ^35S-GTPγS retained by the filter. Maximum activity was that determined in the presence of the agonist and minimum activity in the absence of the agonist following subtraction of the value determined for non-specific activity. The effect of compounds at various concentrations was plotted according to the equation y=A+((B−A)/(1+((C/x)ˆD))) and IC50 estimated where
A is the bottom plateau of the curve i.e. the final minimum y value
B is the top of the plateau of the curve i.e. the final maximum y value
C is the x value at the middle of the curve. This represents the log EC50 value when A+B=100 […]

T1 sequence (Q9H244 whole entry): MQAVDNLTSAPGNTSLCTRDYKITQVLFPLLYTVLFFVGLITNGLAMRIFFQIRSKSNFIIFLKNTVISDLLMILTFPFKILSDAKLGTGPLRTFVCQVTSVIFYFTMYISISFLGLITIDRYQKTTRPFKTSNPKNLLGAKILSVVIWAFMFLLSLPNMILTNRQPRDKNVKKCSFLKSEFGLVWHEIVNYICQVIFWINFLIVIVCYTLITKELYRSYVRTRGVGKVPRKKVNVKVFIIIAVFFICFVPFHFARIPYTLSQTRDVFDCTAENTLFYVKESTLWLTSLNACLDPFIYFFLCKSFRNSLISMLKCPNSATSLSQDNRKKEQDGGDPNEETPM

SMILES	IC50 [µM]
CCCCS(=O)(=O)NC(=O)C1CCN(c2nc(C(F)F)c(C(=O)OCC)cc2C#N)CC1 [Example 41, Ethyl 6-(4-{[(butylsulfonyl)amino]carbonyl}piperidin-1-yl)-5-cyano-2-(difluoromethyl)nicotinate]	0.49
CCOC(=O)c1cc(C#N)c(N2CC(C(=O)NS(=O)(=O)CC3CCC(C)CC3)C2)nc1CF (centres unmarked) [Example 74, Ethyl 5-cyano-2-(fluoromethyl)-6-{3-[({[(4-methylcyclohexyl)methyl]sulfonyl}amino)carbonyl]azetidin-1-yl}nicotinate]	0.27
